Experimental data from US10385069B2, “Imidazo[2,1-B]thiazole and 5,6-dihydroimidazo[2,1-B]thiazole derivatives useful as S100-inhibitors” (Active Biotech AB, priority 2015, dated 2019).

Target: T1, interaction between biotinylated human S100A9 and human RAGE-Fc (Homo sapiens, UniProt P06702)
T1 construct: made in house; host or cells: E. coli
T1 sequence (P06702 1-114): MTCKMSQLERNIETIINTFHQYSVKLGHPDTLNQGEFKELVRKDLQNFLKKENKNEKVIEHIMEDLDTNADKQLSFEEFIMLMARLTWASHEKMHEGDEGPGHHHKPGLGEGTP
Assay: AlphaScreen inhibition assay, biot-hS100A9:hRAGE-Fc
Type: binding
Settings: biot-hS100A9 pre-incubated with compound 1 h, assay buffer with CaCl2 and ZnCl2
Procedure, shortened: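 Biotinylated human S100A9, preincubated with compound, binds human RAGE-Fc on protein A Acceptor beads in HBS-P with CaCl2 and ZnCl2; streptavidin Donor beads added, AlphaScreen signal read. Protein levels set by cross-titration; beads 20 μg/mL final. Percent inhibition versus DMSO control; IC50 from varied compound concentrations.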

SMILES	IC50
CS(=O)(=O)NC(=O)c1cn2c(n1)sc1c(Cl)c(Cl)ccc12 [Example 21, 9,10-Dichloro-N-methanesulfonyl-7-thia-2,5-diazatricyclo[6.4.0.0^2,6]dodeca-1(8),3,5,9,11-pentaene-4-carboxamide]	180 nM
O=C(O)c1cn2c(n1)sc1cc(Cl)ccc12 [Example 8, 10-Chloro-7-thia-2,5-diazatricyclo[6.4.0.0^2,6]dodeca-1(8),3,5,9,11-pentaene-4-carboxylic acid]	2700 nM
CC(C)CC1(C(=O)O)CN2C(=N1)Sc1c2ccc(F)c1Cl (stereo not drawn) [Example 249, 9-Chloro-10-fluoro-4-(2-methylpropyl)-7-thia-2,5-diazatricyclo[6.4.0.0^2,6]dodeca-1(8),5,9,11-tetraene-4-carboxylic acid]	690 nM
O=C(NS(=O)(=O)CC(F)(F)F)c1cn2c(n1)sc1c(Cl)c(Cl)ccc12 [Example 25, 9,10-Dichloro-N-(2,2,2-trifluoroethanesulfonyl)-7-thia-2,5-diazatricyclo[6.4.0.0^2,6]dodeca-1(8),3,5,9,11-pentaene-4-carboxamide]	180 nM
O=C(NS(=O)(=O)CCCO)c1cn2c(n1)sc1c(Cl)c(Cl)ccc12 [Example 28, 9,10-Dichloro-N-(3-hydroxypropanesulfonyl)-7-thia-2,5-diazatricyclo[6.4.0.0^2,6]dodeca-1(8),3,5,9,11-pentaene-4-carboxamide]	170 nM
O=C(O)C1CN2C(=N1)Sc1c2ccc(Cl)c1Cl (stereo not drawn) [Example 185, 9,10-Dichloro-7-thia-2,5-diazatricyclo[6.4.0.0^2,6]dodeca-1(8),5,9,11-tetraene-4-carboxylic acid]	450 nM
CC1(C)Cc2c(sc3nc(CC(=O)O)cn23)C(C)(C)C1 [Example 46, 2-{9,9,11,11-Tetramethyl-7-thia-2,5-diazatricyclo[6.4.0.0^2,6]dodeca-1(8),3,5-trien-4-yl}acetic acid]	4940 nM
CC1(C)Cc2c(sc3nc(C(=O)O)c(I)n23)C(C)(C)C1 [Example 199, 3-Iodo-9,9,11,11-tetramethyl-7-thia-2,5-diazatricyclo[6.4.0.0^2,6]dodeca-1(8),3,5-triene-4-carboxylic acid]	530 nM
CC1(C)Cc2c(sc3nc(C(=O)O)cn23)C1(C)C [Example 36, 4,4,5,5-Tetramethyl-7-thia-1,9-diazatricyclo[6.3.0.0^2,6]undeca-2(6),8,10-triene-10-carboxylic acid]	360 nM
CC1(C)Cc2c(sc3nc(C(=O)O)c(C4CN(C(=O)OC(C)(C)C)C4)n23)C(C)(C)C1 [Example 225, 3-{1-[(tert-Butoxy)carbonyl]azetidin-3-yl}-9,9,11,11-tetramethyl-7-thia-2,5-diazatricyclo[6.4.0.0^2,6]dodeca-1(8),3,5-triene-4-carboxylic acid]	310 nM
CC1(C)Cc2c(sc3nc(C(=O)NS(=O)(=O)CCCN4CCOCC4)cn23)C(C)(C)C1 [Example 55, 9,9,11,11-Tetramethyl-N-[3-(morpholin-4-yl)propanesulfonyl]-7-thia-2,5-diazatricyclo[6.4.0.0^2,6]dodeca-1(8),3,5-triene-4-carboxamide]	550 nM
CC1(C)CCCc2c1sc1nc(C(=O)O)cn21 [Example 43, 9,9-Dimethyl-7-thia-2,5-diazatricyclo[6.4.0.0^2,6]dodeca-1(8),3,5-triene-4-carboxylic acid]	1240 nM
